From ChEMBL document CHEMBL5143733, “Discovery of (E)-3-(3-((2-Cyano-4'-dimethylaminobiphenyl-4-ylmethyl)cyclohexanecarbonylamino)-5-fluorophenyl)acrylic Acid Methyl Ester, an Intestine-Specific, FXR Partial Agonist for the Treatment of Nonalcoholic Steatohepatitis” (J Med Chem, 2022)
Blank lines part the entries; values can stand above or below the molecule they belong to. The source made the active and inactive calls. No cut-off for these calls is given here.

Assays:
[1] = biological target: T1, Bile acid receptor (Homo sapiens) (UniProt Q96RI1); assay: Antagonist activity at human FXR expressed in CHO-K1 FXR cells coexpressed with beta-galactosidase at 10 uM preincubated for 60 mins followed by GW4064 addition and measured after 3 to 16 hrs by PathHunter chemiluminescence based assay relative to control; type: cell-based; design: scale not given: the % may be the effect or the level left; conditions: time 4-17 hrs
T1 sequence (whole entry): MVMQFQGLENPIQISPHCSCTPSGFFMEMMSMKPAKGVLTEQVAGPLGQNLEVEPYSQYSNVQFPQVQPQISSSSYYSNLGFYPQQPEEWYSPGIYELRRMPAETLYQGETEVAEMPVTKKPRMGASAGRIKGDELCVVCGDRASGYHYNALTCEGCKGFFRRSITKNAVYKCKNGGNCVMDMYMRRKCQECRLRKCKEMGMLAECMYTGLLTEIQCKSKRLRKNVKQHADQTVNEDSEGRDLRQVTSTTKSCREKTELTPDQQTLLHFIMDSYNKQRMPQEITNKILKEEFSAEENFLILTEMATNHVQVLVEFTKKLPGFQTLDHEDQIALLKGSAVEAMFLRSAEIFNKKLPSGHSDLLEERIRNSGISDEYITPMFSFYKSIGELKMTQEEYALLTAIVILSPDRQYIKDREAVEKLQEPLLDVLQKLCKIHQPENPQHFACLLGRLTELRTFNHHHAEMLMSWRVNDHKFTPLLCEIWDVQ

[2] = Volume of distribution at steady state in Sprague-Dawley rat at 5 mg/kg, iv measured up to 24 hrs by HPLC analysis; type: ADME, organism-based; conditions: in vivo, read-out: Vdss
[3] = biological target: T1, Bile acid receptor (Homo sapiens); assay: Agonist activity at human FXR transfected in CHO-K1 cells coexpressed with beta-galactosidase at 10 uM incubated for 3 to 16 hrs by PathHunter chemiluminescence based assay relative to control; type: cell-based; conditions: time 3-16 hrs
[4] = AUClast in Sprague-Dawley rat at 5 mg/kg, iv measured up to 24 hrs by HPLC analysis; type: ADME, organism-based; design: time < 24 hrs, dose 5 mg/kg, route iv; conditions: Sprague-Dawley, in vivo
[5] = biological target: T1, Bile acid receptor (Homo sapiens); assay: Antagonist activity at human FXR expressed in CHO-K1 FXR cells coexpressed with beta-galactosidase at 1.1 uM preincubated for 60 mins followed by GW4064 addition and measured after 3 to 16 hrs by PathHunter chemiluminescence based assay relative to control; type: cell-based; design: scale not given: the % may be the effect or the level left; conditions: time 4-17 hrs
[6] = Stability in Sprague-Dawley rat plasma at 80 mg/kg, po measured after 3 hrs by RP-HPLC analysis; type: ADME, organism-based; conditions: in vivo
[7] = Clearance in Sprague-Dawley rat at 5 mg/kg, iv measured up to 24 hrs by HPLC analysis; type: ADME, organism-based; conditions: in vivo
[8] = biological target: T1, Bile acid receptor (Homo sapiens); assay: Antagonist activity at human FXR expressed in CHO-K1 FXR cells coexpressed with beta-galactosidase at 3.3 uM preincubated for 60 mins followed by GW4064 addition and measured after 3 to 16 hrs by PathHunter chemiluminescence based assay relative to control; type: cell-based; design: scale not given: the % may be the effect or the level left; conditions: time 4-17 hrs
[9] = Half life in Sprague-Dawley rat at 5 mg/kg, iv measured up to 24 hrs by HPLC analysis; type: ADME, organism-based; conditions: in vivo
Bile acid receptor = biological target: T2, Bile acid receptor (Homo sapiens, UniProt Q96RI1)
T2 sequence (Q96RI1 whole entry): T1 sequence (whole entry)
Description: Agonist activity at human FXR transfected in CHO-K1 cells coexpressed with beta-galactosidase incubated for 3 to 16 hrs by PathHunter chemiluminescence based assay

[10] = Toxicity in CDAHFD-induced nonalcoholic steatohepatitis C57BL/6J mouse model assessed as increase in liver wet weight at 80 mg/kg, po administered daily for 4 weeks […]; type: organism-based; conditions: in vivo, 672 h
[11] = Toxicity in CDAHFD-induced nonalcoholic steatohepatitis C57BL/6J mouse model assessed as change in amount of food intake at 80 mg/kg, po administered daily for 4 weeks; type: organism-based; conditions: in vivo, 672 h
[12] = Toxicity in CDAHFD-induced nonalcoholic steatohepatitis C57BL/6J mouse model assessed as change in body weight at 80 mg/kg, po administered daily for 4 weeks; type: organism-based; conditions: in vivo, 672 h
[13] = biological target: T3, Bile acid receptor (Mus musculus) (UniProt Q60641); assay: In vivo activation of FXR in CDAHFD-induced nonalcoholic steatohepatitis C57BL/6J mouse model assessed as induction of IBABP gene expression at 80 mg/kg, po administered daily for 4 weeks; type: functional, organism-based
T3 sequence (whole entry): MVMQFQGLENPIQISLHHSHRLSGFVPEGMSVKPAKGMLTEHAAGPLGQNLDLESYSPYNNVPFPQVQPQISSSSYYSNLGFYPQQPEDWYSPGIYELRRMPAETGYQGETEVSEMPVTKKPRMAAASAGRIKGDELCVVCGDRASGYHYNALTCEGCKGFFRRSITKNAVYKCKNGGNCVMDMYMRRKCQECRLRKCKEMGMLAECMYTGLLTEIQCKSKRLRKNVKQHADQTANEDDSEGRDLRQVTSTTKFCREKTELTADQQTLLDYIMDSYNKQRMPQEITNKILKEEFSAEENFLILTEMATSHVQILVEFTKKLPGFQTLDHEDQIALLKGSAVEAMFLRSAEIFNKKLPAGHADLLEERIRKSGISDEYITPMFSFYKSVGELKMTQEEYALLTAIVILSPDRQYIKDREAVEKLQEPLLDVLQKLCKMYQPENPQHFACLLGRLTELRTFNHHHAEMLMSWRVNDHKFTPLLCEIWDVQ

[14] = biological target: T3, Bile acid receptor (Mus musculus); assay: In vivo activation of FXR in CDAHFD-induced nonalcoholic steatohepatitis C57BL/6J mouse model assessed as reduction in liver fibrosis at 80 mg/kg, po administered daily for 4 weeks by picrosirius red staining method; type: functional, organism-based
[15] = biological target: T3, Bile acid receptor (Mus musculus); assay: In vivo activation of FXR in CDAHFD-induced nonalcoholic steatohepatitis C57BL/6J mouse model assessed as induction of OST-alpha gene expression at 80 mg/kg, po administered daily for 4 weeks; type: functional, organism-based
[16] = biological target: T3, Bile acid receptor (Mus musculus); assay: In vivo activation of FXR in CDAHFD-induced nonalcoholic steatohepatitis C57BL/6J mouse model assessed as induction of SHP gene expression in liver at 80 mg/kg, po administered daily for 4 weeks; type: functional, organism-based
[17] = biological target: T3, Bile acid receptor (Mus musculus); assay: In vivo activation of FXR in […]-induced nonalcoholic steatohepatitis C57BL/6J mouse model assessed as improved glucose tolerance measured up to 120 mins by glucose tolerance test; type: functional
[18] = biological target: T3, Bile acid receptor (Mus musculus); assay: In vivo activation of FXR in CDAHFD-induced nonalcoholic steatohepatitis C57BL/6J mouse model assessed as induction of SHP gene expression at 80 mg/kg, po administered daily for 4 weeks; type: functional, organism-based
[19] = biological target: T3, Bile acid receptor (Mus musculus); assay: In vivo activation of FXR in CDAHFD-induced nonalcoholic steatohepatitis C57BL/6J mouse model assessed as induction of FGF15 gene expression at 80 mg/kg, po administered daily for 4 weeks; type: functional, organism-based
[20] = biological target: Glucocorticoid receptor (Homo sapiens) (UniProt P04150); assay: Agonist activity at human GR expressed in CHO-K1 cells assessed as maximum relative efficacy at 100 uM by PathHunter assay relative to dexamethasone; type: cell-based
[21] = biological target: Progesterone receptor (Homo sapiens) (UniProt P06401); assay: Agonist activity at human PR-beta expressed in U2OS cells assessed as maximum relative efficacy at 100 uM by PathHunter assay relative to norgestrel; type: cell-based
[22] = biological target: Retinoic acid receptor beta (Homo sapiens) (UniProt P10826); assay: Agonist activity at human RAR-beta expressed in CHO-K1 cells assessed as maximum relative efficacy at 100 uM by PathHunter assay relative to 9-cis-retinoic acid; type: cell-based
[23] = biological target: Oxysterols receptor LXR-beta (Homo sapiens) (UniProt P55055); assay: Agonist activity at human LXR-beta expressed in CHO-K1 cells assessed as maximum relative efficacy at 100 uM by PathHunter assay relative to TO901317; type: cell-based
[24] = biological target: Oxysterols receptor LXR-alpha (Homo sapiens) (UniProt Q13133); assay: Agonist activity at human LXR-alpha expressed in CHO-K1 cells assessed as maximum relative efficacy at 100 uM by PathHunter assay relative to TO901317; type: cell-based
[25] = biological target: Retinoic acid receptor RXR-beta (Homo sapiens) (UniProt P28702); assay: Agonist activity at human RXR-beta expressed in U2OS cells assessed as maximum relative efficacy at 100 uM by PathHunter assay relative to 9-cis-retinoic acid; type: cell-based
[26] = biological target: Retinoic acid receptor RXR-alpha (Homo sapiens) (UniProt P19793); assay: Agonist activity at human RXR-alpha expressed in U2OS cells assessed as maximum relative efficacy at 100 uM by PathHunter assay relative to 9-cis-retinoic acid; type: cell-based
[27] = biological target: Peroxisome proliferator-activated receptor gamma (Homo sapiens) (UniProt P37231); assay: Agonist activity at human PPAR-gamma expressed in CHO-K1 cells assessed as maximum relative efficacy at 100 uM by PathHunter assay relative to troglitazone; type: cell-based
[28] = biological target: Peroxisome proliferator-activated receptor delta (Homo sapiens) (UniProt Q03181); assay: Agonist activity at human PPAR-delta expressed in CHO-K1 cells assessed as maximum relative efficacy at 100 uM by PathHunter assay relative to L-165,041; type: cell-based
[29] = biological target: Mineralocorticoid receptor (Homo sapiens) (UniProt P08235); assay: Agonist activity at human MR expressed in CHO-K1 cells assessed as maximum relative efficacy at 100 uM by PathHunter assay relative to aldosterone; type: cell-based
[30] = biological target: Progesterone receptor (Homo sapiens) (UniProt P06401); assay: Agonist activity at human PR-alpha expressed in U2OS cells assessed as maximum relative efficacy at 100 uM by PathHunter assay relative to norgestrel; type: cell-based
[31] = biological target: Peroxisome proliferator-activated receptor alpha (Homo sapiens) (UniProt Q07869); assay: Agonist activity at human PPAR-alpha expressed in CHO-K1 cells assessed as maximum relative efficacy at 100 uM by PathHunter assay relative to GW7647; type: cell-based
[32] = biological target: Estrogen receptor (Homo sapiens) (UniProt P03372); assay: Agonist activity at human ERalpha expressed in CHO-K1 cells assessed as maximum relative efficacy at 100 uM by PathHunter assay relative to 17-beta-estradiol; type: cell-based
[33] = biological target: Retinoic acid receptor alpha (Homo sapiens) (UniProt P10276); assay: Agonist activity at human RAR-alpha expressed in CHO-K1 cells assessed as maximum relative efficacy at 100 uM by PathHunter assay relative to 9-cis-retinoic acid; type: cell-based
[34] = biological target: Thyroid hormone receptor beta (Homo sapiens) (UniProt P10828); assay: Agonist activity at human THR-beta expressed in CHO-K1 cells assessed as maximum relative efficacy at 100 uM by PathHunter assay relative to triiodothyronine ine; type: cell-based
[35] = biological target: Androgen receptor (Homo sapiens) (UniProt P10275); assay: Agonist activity at human AR expressed in CHO-K1 cells assessed as maximum relative efficacy at 100 uM by PathHunter assay relative to 6alpha-fluorotestosterone; type: cell-based
[36] = biological target: Thyroid hormone receptor alpha (Homo sapiens) (UniProt P10827); assay: Agonist activity at human THR-alpha expressed in CHO-K1 cells assessed as maximum relative efficacy at 100 uM by PathHunter assay relative to control; type: cell-based

Sequence of Progesterone receptor (Homo sapiens) (P06401 whole entry): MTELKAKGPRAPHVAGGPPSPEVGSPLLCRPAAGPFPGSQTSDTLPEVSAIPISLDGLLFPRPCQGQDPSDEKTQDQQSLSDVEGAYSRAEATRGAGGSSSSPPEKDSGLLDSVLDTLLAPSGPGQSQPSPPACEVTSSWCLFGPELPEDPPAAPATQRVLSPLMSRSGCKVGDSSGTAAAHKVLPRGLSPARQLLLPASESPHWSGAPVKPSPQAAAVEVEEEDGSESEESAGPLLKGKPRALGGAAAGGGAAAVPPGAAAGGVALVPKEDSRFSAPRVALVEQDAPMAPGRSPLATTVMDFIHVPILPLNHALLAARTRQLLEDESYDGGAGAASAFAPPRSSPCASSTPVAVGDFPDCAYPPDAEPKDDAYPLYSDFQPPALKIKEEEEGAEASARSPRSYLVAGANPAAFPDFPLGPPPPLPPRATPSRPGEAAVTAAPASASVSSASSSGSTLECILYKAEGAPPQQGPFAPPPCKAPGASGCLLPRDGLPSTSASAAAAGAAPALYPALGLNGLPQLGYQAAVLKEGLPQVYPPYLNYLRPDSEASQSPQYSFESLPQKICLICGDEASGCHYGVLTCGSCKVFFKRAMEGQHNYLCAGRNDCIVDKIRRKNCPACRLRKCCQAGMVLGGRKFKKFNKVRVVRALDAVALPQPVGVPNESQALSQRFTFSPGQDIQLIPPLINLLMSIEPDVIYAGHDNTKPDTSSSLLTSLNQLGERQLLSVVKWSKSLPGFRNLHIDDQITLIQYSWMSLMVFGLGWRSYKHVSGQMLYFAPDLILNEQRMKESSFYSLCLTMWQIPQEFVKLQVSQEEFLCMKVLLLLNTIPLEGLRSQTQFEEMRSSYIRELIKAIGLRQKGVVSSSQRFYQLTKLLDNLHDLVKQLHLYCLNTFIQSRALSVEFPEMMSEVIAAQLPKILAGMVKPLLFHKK
Sequence of Thyroid hormone receptor beta (Homo sapiens) (P10828 whole entry): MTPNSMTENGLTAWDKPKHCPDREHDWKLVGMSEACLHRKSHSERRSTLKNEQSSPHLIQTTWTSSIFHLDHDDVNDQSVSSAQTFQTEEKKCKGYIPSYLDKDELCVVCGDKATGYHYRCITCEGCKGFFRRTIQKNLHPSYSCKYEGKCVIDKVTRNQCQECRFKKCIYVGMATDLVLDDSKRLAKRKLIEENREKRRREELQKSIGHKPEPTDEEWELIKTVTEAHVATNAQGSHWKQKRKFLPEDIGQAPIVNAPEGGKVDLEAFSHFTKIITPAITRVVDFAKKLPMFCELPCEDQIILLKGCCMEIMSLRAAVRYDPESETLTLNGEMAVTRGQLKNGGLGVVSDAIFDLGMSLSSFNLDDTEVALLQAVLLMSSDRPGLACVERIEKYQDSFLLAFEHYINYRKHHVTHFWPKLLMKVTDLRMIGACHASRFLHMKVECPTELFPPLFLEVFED
Sequence of Glucocorticoid receptor (Homo sapiens) (P04150 whole entry): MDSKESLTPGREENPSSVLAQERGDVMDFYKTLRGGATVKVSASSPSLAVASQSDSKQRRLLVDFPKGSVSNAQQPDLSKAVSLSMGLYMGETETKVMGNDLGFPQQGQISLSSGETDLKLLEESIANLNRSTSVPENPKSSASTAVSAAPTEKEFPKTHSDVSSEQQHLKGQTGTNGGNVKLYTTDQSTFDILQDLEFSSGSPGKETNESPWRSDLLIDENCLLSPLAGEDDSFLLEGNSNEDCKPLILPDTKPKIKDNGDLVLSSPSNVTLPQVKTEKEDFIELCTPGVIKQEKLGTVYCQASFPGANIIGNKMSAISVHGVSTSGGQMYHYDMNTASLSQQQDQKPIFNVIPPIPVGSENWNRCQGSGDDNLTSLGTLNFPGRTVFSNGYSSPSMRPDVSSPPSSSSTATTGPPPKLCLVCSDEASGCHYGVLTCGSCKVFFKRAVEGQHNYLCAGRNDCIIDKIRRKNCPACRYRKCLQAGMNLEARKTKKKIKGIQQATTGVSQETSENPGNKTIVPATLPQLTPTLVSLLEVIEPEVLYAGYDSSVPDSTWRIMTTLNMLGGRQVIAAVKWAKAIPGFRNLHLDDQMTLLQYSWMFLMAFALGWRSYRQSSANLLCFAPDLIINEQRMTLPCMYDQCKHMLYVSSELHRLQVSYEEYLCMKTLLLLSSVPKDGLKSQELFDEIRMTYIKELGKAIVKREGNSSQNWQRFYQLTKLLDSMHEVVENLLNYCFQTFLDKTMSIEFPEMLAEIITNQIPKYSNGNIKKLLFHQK
Sequence of Androgen receptor (Homo sapiens) (P10275 whole entry): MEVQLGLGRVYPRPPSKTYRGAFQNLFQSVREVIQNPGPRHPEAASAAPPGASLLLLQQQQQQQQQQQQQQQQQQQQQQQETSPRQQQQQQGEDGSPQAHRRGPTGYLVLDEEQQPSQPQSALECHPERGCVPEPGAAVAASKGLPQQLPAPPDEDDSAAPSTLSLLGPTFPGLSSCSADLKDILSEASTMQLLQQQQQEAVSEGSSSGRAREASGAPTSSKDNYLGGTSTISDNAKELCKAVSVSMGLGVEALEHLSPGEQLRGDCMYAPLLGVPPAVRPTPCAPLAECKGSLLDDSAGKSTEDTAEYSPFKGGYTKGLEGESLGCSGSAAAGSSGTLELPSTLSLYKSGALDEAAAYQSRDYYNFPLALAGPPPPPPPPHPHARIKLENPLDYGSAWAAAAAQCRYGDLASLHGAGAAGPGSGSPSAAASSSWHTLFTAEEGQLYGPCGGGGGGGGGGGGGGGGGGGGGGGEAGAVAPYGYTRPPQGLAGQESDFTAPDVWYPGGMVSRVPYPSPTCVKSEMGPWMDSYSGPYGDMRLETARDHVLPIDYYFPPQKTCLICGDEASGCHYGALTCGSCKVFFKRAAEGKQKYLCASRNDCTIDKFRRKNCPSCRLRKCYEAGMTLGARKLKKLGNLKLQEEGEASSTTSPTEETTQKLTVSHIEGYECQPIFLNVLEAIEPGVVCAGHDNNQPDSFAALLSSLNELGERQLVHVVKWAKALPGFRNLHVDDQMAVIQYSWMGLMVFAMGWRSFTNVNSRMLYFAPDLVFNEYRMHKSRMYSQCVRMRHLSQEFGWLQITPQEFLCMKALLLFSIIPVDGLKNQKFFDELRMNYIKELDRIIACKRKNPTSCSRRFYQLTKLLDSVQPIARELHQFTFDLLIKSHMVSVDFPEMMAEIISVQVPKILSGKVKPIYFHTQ
Sequence of Retinoic acid receptor alpha (Homo sapiens) (P10276 whole entry): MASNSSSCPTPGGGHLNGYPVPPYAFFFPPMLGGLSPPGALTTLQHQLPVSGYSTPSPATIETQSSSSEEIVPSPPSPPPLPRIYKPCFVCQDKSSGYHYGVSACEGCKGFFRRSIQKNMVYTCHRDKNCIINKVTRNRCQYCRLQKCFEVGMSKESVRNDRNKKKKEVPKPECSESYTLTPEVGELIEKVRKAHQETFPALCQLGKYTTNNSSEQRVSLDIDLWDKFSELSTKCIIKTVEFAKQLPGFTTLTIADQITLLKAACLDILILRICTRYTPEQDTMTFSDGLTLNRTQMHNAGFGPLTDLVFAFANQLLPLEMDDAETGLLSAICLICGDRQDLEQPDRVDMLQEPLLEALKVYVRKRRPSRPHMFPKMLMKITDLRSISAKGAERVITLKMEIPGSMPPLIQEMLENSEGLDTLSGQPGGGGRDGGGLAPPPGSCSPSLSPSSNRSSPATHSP
Sequence of Oxysterols receptor LXR-beta (Homo sapiens) (P55055 whole entry): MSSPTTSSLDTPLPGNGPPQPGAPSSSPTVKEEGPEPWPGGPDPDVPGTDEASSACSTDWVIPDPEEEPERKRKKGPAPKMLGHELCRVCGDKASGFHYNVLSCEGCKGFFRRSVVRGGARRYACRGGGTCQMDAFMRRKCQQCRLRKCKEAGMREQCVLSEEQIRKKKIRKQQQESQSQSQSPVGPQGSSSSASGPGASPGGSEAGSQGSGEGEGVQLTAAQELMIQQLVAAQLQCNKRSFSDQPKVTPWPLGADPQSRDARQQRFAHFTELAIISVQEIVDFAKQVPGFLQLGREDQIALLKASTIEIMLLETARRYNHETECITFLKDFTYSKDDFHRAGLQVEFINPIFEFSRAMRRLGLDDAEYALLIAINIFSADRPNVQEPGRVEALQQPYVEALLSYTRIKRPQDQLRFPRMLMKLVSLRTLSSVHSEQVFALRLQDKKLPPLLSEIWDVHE
Sequence of Estrogen receptor (Homo sapiens) (P03372 whole entry): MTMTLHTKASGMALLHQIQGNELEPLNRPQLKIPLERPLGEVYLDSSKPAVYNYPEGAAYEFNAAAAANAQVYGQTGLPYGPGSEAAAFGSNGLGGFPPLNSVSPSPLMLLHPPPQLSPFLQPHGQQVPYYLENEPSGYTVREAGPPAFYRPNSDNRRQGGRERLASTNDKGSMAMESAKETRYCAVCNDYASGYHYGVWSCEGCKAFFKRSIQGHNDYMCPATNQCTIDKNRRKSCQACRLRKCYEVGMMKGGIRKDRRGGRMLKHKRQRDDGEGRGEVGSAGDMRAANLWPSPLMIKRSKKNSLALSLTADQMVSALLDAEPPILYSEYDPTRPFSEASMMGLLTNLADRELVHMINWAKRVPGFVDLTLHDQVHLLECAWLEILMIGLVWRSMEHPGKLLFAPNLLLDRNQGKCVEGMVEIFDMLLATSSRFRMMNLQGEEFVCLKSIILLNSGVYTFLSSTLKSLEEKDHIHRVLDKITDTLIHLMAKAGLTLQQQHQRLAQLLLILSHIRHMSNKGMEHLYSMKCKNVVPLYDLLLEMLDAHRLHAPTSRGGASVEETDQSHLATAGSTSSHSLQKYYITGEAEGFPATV
Sequence of Peroxisome proliferator-activated receptor delta (Homo sapiens) (Q03181 whole entry): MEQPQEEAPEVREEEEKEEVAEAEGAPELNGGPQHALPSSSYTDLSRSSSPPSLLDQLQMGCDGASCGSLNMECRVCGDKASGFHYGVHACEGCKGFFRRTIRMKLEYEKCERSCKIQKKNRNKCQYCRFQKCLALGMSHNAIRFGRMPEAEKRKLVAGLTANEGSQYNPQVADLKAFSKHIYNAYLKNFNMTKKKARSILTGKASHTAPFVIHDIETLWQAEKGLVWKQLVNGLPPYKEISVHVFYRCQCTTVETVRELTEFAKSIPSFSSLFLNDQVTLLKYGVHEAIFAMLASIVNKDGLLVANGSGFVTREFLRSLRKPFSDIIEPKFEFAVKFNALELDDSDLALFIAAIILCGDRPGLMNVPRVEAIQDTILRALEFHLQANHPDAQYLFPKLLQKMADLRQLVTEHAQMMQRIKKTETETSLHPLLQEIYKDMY

Structure (SMILES): COc1cccc(Cn2cc(C(=O)Nc3ccc(C)c(S(=O)(=O)N4CCOCC4)c3)c(-c3ccc(C)cc3)n2)c1
- Activity ([1]; filed as antagonist): 96%

Structure (SMILES): CN(C)c1ccc(-c2ccc(CN(C(=O)C3CCCCC3)c3cc(F)cc(/C=C/C(=O)O)c3)cc2C#N)cc1
- Vd [2]: 1.4 L/kg
- Activity [3]: 0%
- Activity [1]: 26%
- AUC(0-t) at 24 h [4]: 1200 ng·h/mL
- Activity [5]: 6%
- Stability [6]: Unstable
- clearance [7]: 70 mL/min/kg
- Activity [8]: 7%
- half-life [9]: 14.4 min

Structure (SMILES): CC(C)OC(=O)/C=C/c1cccc(N(Cc2ccc(-c3ccc(N(C)C)cc3)c(C#N)c2)C(=O)C2CCCCC2)c1F
- EC50 (Bile acid receptor): 900 nM

Structure (SMILES): COC(=O)/C=C/c1cccc(N(Cc2ccc3c(c2)CCc2cc(N(C)C)ccc2-3)C(=O)C2CCCCC2)c1
- EC50 (Bile acid receptor): > 10000 nM

Structure (SMILES): COC(=O)/C=C/c1cccc(N(Cc2ccc(-c3ccc(N(C)C)cc3)c(C#N)c2)C(=O)C2CCCCC2)c1
- Emax [20]: 0%
- Emax [21]: 0%
- Emax [22]: -11%
- Emax [23]: 3%
- Emax [24]: 0%
- Emax [25]: -4%
- Emax [26]: -2%
- Emax [27]: 2%
- Emax [28]: -3%
- Emax [29]: 0%
- Emax [30]: -1%
- Emax [31]: 0%
- Emax [32]: 1%
- Emax [33]: -3%
- Emax [34]: 1%
- Emax [35]: -2%
- Emax [36]: -1%

The next lines start with results.

- EC50 (Bile acid receptor): 2600 nM
Structure (SMILES): CN(C)c1ccc(-c2ccc(CN(C(=O)C3CCCCC3)c3cccc(/C=C/C(=O)OCF)c3)cc2C#N)cc1

- EC50 (Bile acid receptor): > 10000 nM
Structure (SMILES): COC(=O)/C=C/c1cccc(N(Cc2ccc3c(ccc4cc(N(C)C)ccc43)c2)C(=O)C2CCCCC2)c1

- Activity [13]: Active
- Activity [14]: Active
- Activity [15]: Active
- Activity [16]: Active
- Activity [18]: Active
- Activity [19]: Active
Structure (SMILES): COC(=O)/C=C/c1cccc(N(Cc2ccc(-c3ccc(N(C)C)cc3)cc2)C(=O)C2CCCCC2)c1 [FEXARAMINE]
- Activity [10]: Non-Toxic
- Activity [11]: Non-Toxic
- Activity [12]: Non-Toxic
- Activity [17]: Active
